Non-standard residues stand in square brackets, D forms with d. Residues, ends and D or L forms follow the SMILES beside them. Phe(4-NO2) = N[C@@H](Cc1ccc([N+](=O)[O-])cc1)C(=O)O; Nle = CCCC[C@H](N)C(=O)O; 2Abz = Nc1ccccc1C(=O)O
Molecular target: T1, HIV-1 protease (Human immunodeficiency virus type 1 group M subtype B, UniProt P04585)
T1 construct: made in house; host or cells: E. coli BL21 (dE3)pLysS, pET30a vector
Assay: Kinetic measurements of the cleavage of anthranilyl fluorogenic substrate by HIV-1 protease
Type: biochemical
Conditions: purified refolded HIV-1 protease; read-out: Michaelis constant for the substrate Km
Description: The HIV-1 protease gene was subcloned into the pET30a vector (Novagen) and then transformed into BL21 (dE3)pLysS cells for protein expression. Protein expression and purification were followed according to Tang's procedure (Hong et al., Biochemistry, 1996, 35, 10627-10633). […] The inclusion body containing some bacterial proteins was thoroughly washed by using TRITON X-100, solubilized in BM urea and passed through the Q-sepharose column to remove the bacterial proteins which interfered with subsequent refolding steps. HIV-1 protease was refolded from the urea to an active form by dialysis. As a final step, gel filtration chromatography was used to remove impurities after refolding. Activities of purified HIV-1 protease were examined using a fluorogenic substrate, 2-aminobenzoyl-Thr-Ile-Nle-Phe(pNO2)-Gln-Arg-NH2 (Novabiochem). […] Using the first rate equation, kcat is calculated. In the condition of So<<Km, v=Eo(kcat/Km)So, where Eo is the total enzyme concentration, and So is the substrate concentrate.

Compound	Km [µM]
CCCC[C@H](NC(=O)[C@@H](NC(=O)[C@@H](NC(=O)c1ccccc1N)[C@@H](C)O)[C@@H](C)CC)C(=O)N[C@@H](Cc1ccc([N+](=O)[O-])cc1)C(=O)N[C@@H](CCC(N)=O)C(=O)N[C@@H](CCCNC(=N)N)C(N)=O [2-aminobenzoyl-Thr-Ile-Nle-Phe(pNO2)-Gln-Arg-NH2] (H-[2Abz]TI[Nle][Phe(4-NO2)]QR-NH2)	4.5

Molecular target: T1, HIV-1 protease
Assay: HIV-1 Protease Inhibition Assay
Type: biochemical
Conditions: cells marked (pM) in a column headed nM
Procedure, shortened: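 Recombinant HIV-1 protease expressed in E. coli BL21(DE3)pLysS, refolded from urea and purified. Activity followed with fluorogenic substrate 2-aminobenzoyl-Thr-Ile-Nle-Phe(pNO2)-Gln-Arg-NH2 under So<<Km.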

Compound	IC50 [pM]
Nc1ccc(S(=O)(=O)N(C[C@H]2CCC(=O)N2)C[C@@H](O)[C@H](Cc2ccccc2)NC(=O)OC2CO[C@H]3OCC[C@@H]23)cc1 (some centres unmarked) [Compound 276]	20

Same assay, conditions: fluorogenic substrate assay

Compound	IC50 [pM]	Ki [nM]
CNCc1ccc(S(=O)(=O)N(CC(C)C)C[C@@H](O)[C@H](Cc2ccccc2)NC(=O)OC2CO[C@H]3OCCC23)cc1 (some centres unmarked) [Compound 119]	3500	1.1
CC(C)CN(C[C@@H](O)[C@H](Cc1ccccc1)NC(=O)OC1CC2CCO[C@@H]2C1)C(=O)c1cc(O)cc(O)c1 (some centres unmarked) [Compound 134]	3e+06	931
COc1ccc(S(=O)(=O)N(C[C@@H]2CCC(=O)N2)C[C@@H](O)[C@H](Cc2ccccc2)NC(=O)OC2CC[C@H]3OCC[C@@H]23)cc1 (some centres unmarked) [Compound 278]	160	–
CC(C)CN(C[C@@H](O)[C@H](Cc1ccccc1)NC(=O)O[C@H]1CCOC1)S(=O)(=O)c1ccc(F)c(N)c1 [Compound 182]	4600	1.4
CC(C)(C)OC(=O)N[C@@H](Cc1ccccc1)[C@H](O)CN(C[C@@H]1CCC(=O)N1)S(=O)(=O)c1ccc([N+](=O)[O-])cc1 [Compound 307b]	12000	–
COc1ccc(S(=O)(=O)N(CC(C)C)C[C@H](O)[C@H](Cc2ccc(OCc3ccccc3)cc2)NC(=O)O[C@H]2CO[C@H]3OCCC32)cc1 (some centres unmarked) [Compound 211]	90000	28
CC(C)CN(C[C@@H](O)[C@H](Cc1ccccc1)NC(=O)O[C@@H]1CC2CCO[C@@H]2C1)S(=O)(=O)c1cccc(/C=N/O)c1 (some centres unmarked) [Compound 257]	2900	–
C=CCCCCOc1ccccc1COC(=O)N(CCCC=C)C[C@@H](O)[C@H](Cc1ccccc1)NC(=O)O[C@@H]1CC2CCO[C@@H]2C1 (some centres unmarked) [Compound 226]	> 2e+06	–
Cc1ccc(S(=O)(=O)OCc2ccc(S(=O)(=O)N(CC(C)C)C[C@@H](O)[C@H](Cc3ccccc3)NC(=O)OC3CO[C@H]4OCCC34)cc2)cc1 (some centres unmarked) [Compound 117]	2400	0.74
CC(C)CN(C[C@@H](O)[C@H](Cc1ccccc1)NC(=O)OC1CO[C@H]2OCCC12)S(=O)(=O)c1cccc(/C=N/O)c1 (some centres unmarked) [Compound 120]	2400	0.74
CC(C)CN(C[C@@H](O)[C@H](Cc1ccccc1)NC(=O)OC1CC2CCO[C@@H]2C1)S(=O)(=O)c1cc(OC2CCCCO2)cc(OC2CCCCO2)c1 (some centres unmarked) [Compound 99]	3900	1.2
COc1ccc(S(=O)(=O)N(CC(C)C)C[C@@H](O)C(Cc2ccccc2)NC(=O)O[C@H]2CO[C@@H]3OCCC[C@@H]32)cc1 (some centres unmarked) [Compound 253]	1000	–
COc1ccc(S(=O)(=O)N(C[C@@H]2CCC(=O)N2)C[C@@H](O)[C@H](Cc2ccccc2)NC(=O)OC(C)(C)C)cc1 [Compound 272]	3420	–
COc1ccc(S(=O)(=O)N(CC(C)C)C[C@@H](O)[C@H](Cc2ccccc2)NC(=O)O[C@H]2CC[C@]3(CCCO3)C2)cc1 [Compound 145d]	4600	–
Cc1ccc(S(=O)(=O)N(C[C@@H](O)[C@H](Cc2ccccc2)NC(=O)OC2CC3CCO[C@@H]3C2)C2CCOC2)cc1CO (some centres unmarked) [Compound 162]	4100	1.3
CC(C)CN(C[C@@H](O)[C@H](Cc1ccccc1)NC(=O)OC1CC2CCO[C@@H]2C1)S(=O)(=O)c1ccc(O)c(O)c1 (some centres unmarked) [Compound 88]	–	1.2
CC(C)CN(C[C@@H](O)[C@H](Cc1ccccc1)NC(=O)OC1CC2CCO[C@@H]2C1)S(=O)(=O)c1ccc(Cl)c(O)c1 (some centres unmarked) [Compound 152]	5200	1.8
CC(C)CN(C[C@@H](O)[C@H](Cc1ccccc1)NC(=O)OC1CC2CCO[C@@H]2C1)S(=O)(=O)c1cccc2cccnc12 (some centres unmarked) [Compound 132]	12000	3.7

Test system: not given
Assay: not given
Conditions: not given

Compound	melting point [°C]
CNCc1ccc(S(=O)(=O)N(CC(C)C)C[C@@H](O)[C@H](Cc2ccccc2)NC(=O)OC2CO[C@H]3OCCC23)cc1 (some centres unmarked) [Compound 119]	57 to 62
CC(C)CN(C[C@@H](O)[C@H](Cc1ccccc1)NC(=O)OC1CC2CCO[C@@H]2C1)S(=O)(=O)c1ccc(O)c(O)c1 (some centres unmarked) [Compound 88]	80 to 82
